# Results from US20260226071A1, “2, 4-DIANILINOPYRIMIDINE-BASED AURORA-A KINASE SELECTIVE DEGRADATION INDUCING COMPOUNDS” (UPPTHERA, INC., priority 2023, published 2026).
# Tests used:
# NCI-H446 cell line = test: Cell viability assay for NCI-H446 cell line; format: cell-based; settings: Homo sapiens, NCI-H446, 120 h; H446 cells, 5 days culture, EZ-Cytox; read-out: IC50 value (Level)
# Procedure, shortened: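 Viability was measured by absorbance at 450 nm after 4 h with EZ-Cytox, following 5-day exposure of NCI-H446 cells (RPMI 1640, 10% FBS, 37 °C, 5% CO2) to 3-fold serial dilutions from 1000 nM down to 0.15 nM, added 24 h post-seeding.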
# Aurora kinase A (AURKA) = biological target: T1, Aurora kinase A (AURKA) (Homo sapiens, UniProt O14965); test: Luciferase assay for AURKA in HeLa LgBit (AURKA-HiBit KI) cell line; format: cell-based; settings: HeLa LgBit (AURKA-HiBit KI) cells, measured after 12 hours
# T1 construct: endogenous in cells; host or cells: HeLa LgBit (AURKA-HiBit KI), CRISPR/Cas9 knock-in at the endogenous AURKA locus
# T1 sequence (O14965 1-403): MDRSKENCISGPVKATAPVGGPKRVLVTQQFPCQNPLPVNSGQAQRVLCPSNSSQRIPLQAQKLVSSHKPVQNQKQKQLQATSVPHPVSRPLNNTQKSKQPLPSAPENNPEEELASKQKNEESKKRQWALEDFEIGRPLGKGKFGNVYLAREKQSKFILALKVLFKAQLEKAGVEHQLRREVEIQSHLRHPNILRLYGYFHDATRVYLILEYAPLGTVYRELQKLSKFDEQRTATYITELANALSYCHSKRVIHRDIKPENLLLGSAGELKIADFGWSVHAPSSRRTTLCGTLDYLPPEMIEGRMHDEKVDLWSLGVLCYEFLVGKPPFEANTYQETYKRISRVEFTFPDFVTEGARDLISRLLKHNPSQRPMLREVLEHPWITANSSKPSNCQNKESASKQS
# Procedure, shortened: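 Test compounds (10 nM or 100 nM) added to AURKA-HiBit knock-in HeLa LgBit cells that had been pre-loaded with Endurazine for 2 h following an 18 h culture at 3×10^4 cells. Endogenous AURKA-HiBit level followed by luminescence (470-480 nm), measured after 12 h.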
compound,measurement,setting,value
"CN(CC1CCN(c2ccc(C3CCC(=O)NC3=O)cc2F)CC1)[C@H]1C[C@H](NC(=O)c2ccc(Nc3ncc(F)c(Nc4ccc(C(=O)Nc5ccccc5Cl)cc4)n3)cc2)C1 (stereo partly drawn) [Compound 76, N-(2-chlorophenyl)-4-((2-((4-(((1r,3r)-3-(((1-(4-(2,6-dioxopiperidin-3-yl)-2-fluorophenyl)piperidin-4-yl)methyl)(methyl)amino)cyclobutyl)carbamoyl)phenyl)amino)-5-fluoropyrimidin-4-yl)amino)benzamide]",IC50,NCI-H446 cell line,50 to 100 nM
same,luminescence value (Level),Aurora kinase A (AURKA); 10 nM compound,B (B is 0.3 to 0.5)
same,luminescence value (Level),Aurora kinase A (AURKA); 100 nM compound,A (A is <0.2)
"O=C1CCC(c2ccc(N3CCC(CN4CC5(CC(NC(=O)c6ccc(Nc7ncc(F)c(Nc8ccc(C(=O)Nc9ccccc9Cl)cc8)n7)cc6)C5)C4)CC3)c(F)c2)C(=O)N1 (stereo not drawn) [Compound 77, N-(2-chlorophenyl)-4-((2-((4-((2-((1-(4-(2,6-dioxopiperidin-3-yl)-2-fluorophenyl)piperidin-4-yl)methyl)-2-azaspiro[3.3]heptan-6-yl)carbamoyl)phenyl)amino)-5-fluoropyrimidin-4-yl)amino)benzamide]",IC50,NCI-H446 cell line,50 to 100 nM
same,luminescence value (Level),Aurora kinase A (AURKA); 10 nM compound,A (A is <0.3)
same,luminescence value (Level),Aurora kinase A (AURKA); 100 nM compound,A (A is <0.2)
"O=C1CCC(c2ccc(N3CC4(CCN(CC5CCN(NC(=O)c6ccc(Nc7ncc(F)c(Nc8ccc(C(=O)Nc9ccccc9Cl)cc8)n7)cc6)CC5)CC4)C3)c(F)c2)C(=O)N1 (stereo not drawn) [Compound 78, N-(2-chlorophenyl)-4-[[2-[4-[[4-[[2-[4-(2,6-dioxo-3-piperidyl)-2-fluoro-phenyl]-2,7-diazaspiro[3.5]nonan-7-yl]methyl]-1-piperidyl]carbamoyl]anilino]-5-fluoro-pyrimidin-4-yl]amino]benzamide]",IC50,NCI-H446 cell line,50 to 100 nM
same,luminescence value (Level),Aurora kinase A (AURKA); 10 nM compound,B (B is 0.3 to 0.5)
same,luminescence value (Level),Aurora kinase A (AURKA); 100 nM compound,A (A is <0.2)
"C[C@@H](CN1CCN(c2ccc(C3CCC(=O)NC3=O)cc2)CC1)C1CCN(NC(=O)c2ccc(Nc3ncc(F)c(Nc4ccc(C(=O)Nc5ccccc5Cl)cc4)n3)cc2)CC1 (stereo partly drawn) [Compound 79, N-(2-chlorophenyl)-4-((2-((4-((4-((2R)-1-(4-(4-(2,6-dioxopiperidin-3-yl)phenyl)piperazin-1-yl)propan-2-yl)piperidin-1-yl)carbamoyl)phenyl)amino)-5-fluoropyrimidin-4-yl)amino)benzamide]",IC50,NCI-H446 cell line,< 50 nM
same,luminescence value (Level),Aurora kinase A (AURKA); 10 nM compound,A (A is <0.3)
same,luminescence value (Level),Aurora kinase A (AURKA); 100 nM compound,A (A is <0.2)
"CN(CC1CCN(c2ccc(C3CCC(=O)NC3=O)cc2F)CC1)[C@H]1CC[C@H](NC(=O)c2ccc(Nc3ncc(F)c(Nc4ccc(C(=O)Nc5ccccc5Cl)cc4)n3)cc2)CC1 (stereo partly drawn) [Compound 80, N-(2-chlorophenyl)-4-((2-((4-(((1r,4r)-4-(((1-(4-(2,6-dioxopiperidin-3-yl)-2-fluorophenyl)piperidin-4-yl)methyl)(methyl)amino)cyclohexyl)carbamoyl)phenyl)amino)-5-fluoropyrimidin-4-yl)amino)benzamide]",IC50,NCI-H446 cell line,50 to 100 nM
same,luminescence value (Level),Aurora kinase A (AURKA); 10 nM compound,A (A is <0.3)
same,luminescence value (Level),Aurora kinase A (AURKA); 100 nM compound,A (A is <0.2)
"CN(CC1CCN(c2ccc(C3CCC(=O)NC3=O)cc2F)CC1)C1CCN(NC(=O)c2ccc(Nc3ncc(F)c(Nc4ccc(C(=O)Nc5ccccc5Cl)cc4)n3)cc2)CC1 (stereo not drawn) [Compound 81, N-(2-chlorophenyl)-4-((2-((4-((4-(((1-(4-(2,6-dioxopiperidin-3-yl)-2-fluorophenyl)piperidin-4-yl)methyl)(methyl)amino)piperidin-1-yl)carbamoyl)phenyl)amino)-5-fluoropyrimidin-4-yl)amino)benzamide]",IC50,NCI-H446 cell line,< 50 nM
same,luminescence value (Level),Aurora kinase A (AURKA); 10 nM compound,A (A is <0.3)
same,luminescence value (Level),Aurora kinase A (AURKA); 100 nM compound,A (A is <0.2)
"O=C1CCC(c2ccc(N3CCN(CCC4CCN(NC(=O)c5ccc(Nc6ncc(F)c(Nc7ccc(C(=O)Nc8ccccc8Cl)cc7)n6)cc5)CC4)CC3)cc2F)C(=O)N1 (stereo not drawn) [Compound 82, N-(2-chlorophenyl)-4-((2-((4-((4-(2-(4-(4-(2,6-dioxopiperidin-3-yl)-3-fluorophenyl)piperazin-1-yl)ethyl)piperidin-1-yl)carbamoyl)phenyl)amino)-5-fluoropyrimidin-4-yl)amino)benzamide]",IC50,NCI-H446 cell line,< 50 nM
same,luminescence value (Level),Aurora kinase A (AURKA); 10 nM compound,A (A is <0.3)
same,luminescence value (Level),Aurora kinase A (AURKA); 100 nM compound,A (A is <0.2)
"O=C1CCC(c2ccc(N3CCN(CCC4CCN(NC(=O)c5ccc(Nc6ncc(F)c(Nc7ccc(C(=O)Nc8ccccc8Cl)cc7)n6)cn5)CC4)CC3)cc2)C(=O)N1 (stereo not drawn) [Compound 83, 5-[[4-[4-[(2-chlorophenyl)carbamoyl]anilino]-5-fluoro-pyrimidin-2-yl]amino]-N-[4-[2-[4-[4-(2,6-dioxo-3-piperidyl)phenyl]piperazin-1-yl]ethyl]-1-piperidyl]pyridine-2-carboxamide]",IC50,NCI-H446 cell line,> 200 nM
same,luminescence value (Level),Aurora kinase A (AURKA); 10 nM compound,B (B is 0.3 to 0.5)
same,luminescence value (Level),Aurora kinase A (AURKA); 100 nM compound,A (A is <0.2)
"Cc1cc(N2CCN(CCC3CCN(NC(=O)c4ccc(Nc5ncc(F)c(Nc6ccc(C(=O)Nc7ccccc7Cl)cc6)n5)cc4)CC3)CC2)ccc1NC1CCC(=O)NC1=O (stereo not drawn) [Compound 85, N-(2-chlorophenyl)-4-((2-((4-((4-(2-(4-(4-((2,6-dioxopiperidin-3-yl)amino)-3-methylphenyl)piperazin-1-yl)ethyl)piperidin-1-yl)carbamoyl)phenyl)amino)-5-fluoropyrimidin-4-yl)amino)benzamide]",IC50,NCI-H446 cell line,150 to 200 nM
same,luminescence value (Level),Aurora kinase A (AURKA); 10 nM compound,B (B is 0.3 to 0.5)
same,luminescence value (Level),Aurora kinase A (AURKA); 100 nM compound,A (A is <0.2)
"O=C1CCC(Nc2ccc(N3CCN(CC[C@H]4CC[C@H](NC(=O)c5ccc(Nc6ncc(F)c(Nc7ccc(C(=O)Nc8ccccc8Cl)cc7)n6)cc5)CC4)CC3)c(F)c2)C(=O)N1 (stereo partly drawn) [Compound 86, N-(2-chlorophenyl)-4-((2-((4-(((1r,4r)-4-(2-(4-(4-((2,6-dioxopiperidin-3-yl)amino)-2-fluorophenyl)piperazin-1-yl)ethyl)cyclohexyl)carbamoyl)phenyl)amino)-5-fluoropyrimidin-4-yl)amino)benzamide]",IC50,NCI-H446 cell line,50 to 100 nM
same,luminescence value (Level),Aurora kinase A (AURKA); 10 nM compound,A (A is <0.3)
same,luminescence value (Level),Aurora kinase A (AURKA); 100 nM compound,A (A is <0.2)
"O=C1CCC(c2ccc(N3CCN(CCC4CCN(NC(=O)c5ccc(Nc6ncc(F)c(Nc7ccc(C(=O)Nc8ccccc8Cl)cc7)n6)cc5)CC4)CC3)cn2)C(=O)N1 (stereo not drawn) [Compound 88, N-(2-chlorophenyl)-4-((2-((4-((4-(2-(4-(6-(2,6-dioxopiperidin-3-yl)pyridin-3-yl)piperazin-1-yl)ethyl)piperidin-1-yl)carbamoyl)phenyl)amino)-5-fluoropyrimidin-4-yl)amino)benzamide]",IC50,NCI-H446 cell line,< 50 nM
same,luminescence value (Level),Aurora kinase A (AURKA); 10 nM compound,A (A is <0.3)
same,luminescence value (Level),Aurora kinase A (AURKA); 100 nM compound,A (A is <0.2)
